Measurements from US20150344540A1, “NOVEL GLP-1 RECEPTOR AGONISTS WITH CHOLESTEROL EFFLUX ACTIVITY” (NOVO NORDISK A/S, priority 2012, published 2015).
Like-named read-outs stand apart in the source and are kept apart here. Where a SMILES comes first, the peptide text is derived from it. [ ]: non-standard residue; d: D form. Aib = CC(C)(N)C(=O)O

Assays:
[1] = tested on: Mouse monocyte/macrophage cell line, RAW 264.7; assay: Cholesterol efflux assay (3H-cholesterol, macrophage cell line); assay type: cell-based; conditions: RAW 264.7, 4 hrs incubation, 0.1% human serum albumin, ABCA1-mediated efflux
human GLP-1 receptor = human GLP-1 receptor (Homo sapiens, UniProt P43220); assay: Functional GLP-1 receptor assay, in vitro potency (CRE luciferase; whole cells); assay type: cell-based; conditions: BHK cells expressing human GLP-1 receptor
[2] = 0% HSA, read-out: GLP1R CRE luc 0% HSA EC50 Mean Value
[3] = GLP1R CRE luc 1% HSA EC50 Mean Value, 1% HSA

Chain of human GLP-1 receptor (P43220 24-463): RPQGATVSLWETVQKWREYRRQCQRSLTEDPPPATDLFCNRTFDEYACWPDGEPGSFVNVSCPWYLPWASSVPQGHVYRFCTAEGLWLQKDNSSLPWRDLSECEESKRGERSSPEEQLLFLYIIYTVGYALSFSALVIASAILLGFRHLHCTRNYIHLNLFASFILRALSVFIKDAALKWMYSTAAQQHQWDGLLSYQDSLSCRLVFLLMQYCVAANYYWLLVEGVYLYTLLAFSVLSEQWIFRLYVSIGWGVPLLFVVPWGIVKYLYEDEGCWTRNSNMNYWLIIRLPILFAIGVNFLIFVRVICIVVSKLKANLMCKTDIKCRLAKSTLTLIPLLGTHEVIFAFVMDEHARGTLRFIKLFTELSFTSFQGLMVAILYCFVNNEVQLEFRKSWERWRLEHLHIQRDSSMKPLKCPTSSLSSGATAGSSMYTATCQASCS

Row | Compound | EC50 (human GLP-1 receptor; [2]) | EC50 (human GLP-1 receptor; [3]) | 4 h Cholesterol Efflux Emax [1]
1 | CC[C@H](C)[C@H](NC(=O)[C@H](Cc1ccccc1)NC(=O)[C@H](CCC(=O)O)NC(=O)[C@H](CCCNC(=N)N)NC(=O)[C@@H](NC(=O)[C@H](C)NC(=O)[C@H](CCC(=O)O)NC(=O)CNC(=O)[C@H](CCC(=O)O)NC(=O)[C@H](CC(C)C)NC(=O)[C@H](Cc1ccc(O)cc1)NC(=O)[C@H](CO)NC(=O)[C@H](CO)NC(=O)[C@@H](NC(=O)[C@H](CC(=O)O)NC(=O)[C@H](CO)NC(=O)[C@@H](NC(=O)[C@H](Cc1ccccc1)NC(=O)[C@@H](NC(=O)CNC(=O)[C@H](CCC(=O)O)NC(=O)C(C)(C)NC(=O)[C@@H](N)Cc1c[nH]cn1)[C@@H](C)O)[C@@H](C)O)C(C)C)C(C)C)C(=O)N[C@@H](C)C(=O)N[C@@H](Cc1c[nH]c2ccccc12)C(=O)N[C@@H](CC(C)C)C(=O)N[C@H](C(=O)N[C@@H](CCC(=O)O)C(=O)N[C@@H](CCCCN)C(=O)NC(C)(C)C(=O)N[C@@H](CCCCN)C(=O)N[C@@H](CCC(=O)O)C(=O)N[C@@H](Cc1ccccc1)C(=O)N[C@@H](CC(C)C)C(N)=O)C(C)C [Compound 81] (H-H[Aib]EGTFTSDVSSYLEGEAVREFIAWLVEK[Aib]KEFL-NH2) | 0.076 nM | 0.028 nM | 112%
2 | CC[C@H](C)[C@H](NC(=O)[C@H](Cc1ccccc1)NC(=O)[C@H](CCC(=O)O)NC(=O)[C@H](CCC(N)=O)NC(=O)[C@@H](NC(=O)[C@H](C)NC(=O)[C@H](CCC(=O)O)NC(=O)CNC(=O)[C@H](CCC(=O)O)NC(=O)[C@H](CC(C)C)NC(=O)[C@H](Cc1ccc(O)cc1)NC(=O)[C@H](CO)NC(=O)[C@H](CO)NC(=O)[C@@H](NC(=O)[C@H](CC(=O)O)NC(=O)[C@H](CO)NC(=O)[C@@H](NC(=O)[C@H](Cc1ccccc1)NC(=O)[C@@H](NC(=O)CNC(=O)[C@H](CCC(=O)O)NC(=O)C(C)(C)NC(=O)[C@@H](N)Cc1c[nH]cn1)[C@@H](C)O)[C@@H](C)O)C(C)C)C(C)C)C(=O)N[C@@H](C)C(=O)N[C@@H](Cc1c[nH]c2ccccc12)C(=O)N[C@@H](CC(C)C)C(=O)N[C@H](C(=O)N[C@@H](CCC(=O)O)C(=O)N[C@@H](CCC(N)=O)C(=O)NC(C)(C)C(=O)N[C@@H](CCC(N)=O)C(=O)N[C@@H](CCC(=O)O)C(=O)N[C@@H](Cc1ccccc1)C(=O)N[C@@H](CC(C)C)C(N)=O)C(C)C [Compound 95] (H-H[Aib]EGTFTSDVSSYLEGEAVQEFIAWLVEQ[Aib]QEFL-NH2) |  | 0.04 nM | 59%
3 | CC[C@H](C)[C@H](NC(=O)[C@H](Cc1ccccc1)NC(=O)[C@H](CCC(=O)O)NC(=O)[C@H](CCCCN)NC(=O)[C@@H](NC(=O)[C@H](C)NC(=O)[C@H](CCC(=O)O)NC(=O)CNC(=O)[C@H](CCC(=O)O)NC(=O)[C@H](CC(C)C)NC(=O)[C@H](Cc1ccc(O)cc1)NC(=O)[C@H](CO)NC(=O)[C@H](CO)NC(=O)[C@@H](NC(=O)[C@H](CC(=O)O)NC(=O)[C@H](CO)NC(=O)[C@@H](NC(=O)[C@H](Cc1ccccc1)NC(=O)[C@@H](NC(=O)CNC(=O)[C@H](CCC(=O)O)NC(=O)C(C)(C)NC(=O)[C@@H](N)Cc1c[nH]cn1)[C@@H](C)O)[C@@H](C)O)C(C)C)C(C)C)C(=O)N[C@@H](C)C(=O)N[C@@H](Cc1c[nH]c2ccccc12)C(=O)N[C@@H](CC(C)C)C(=O)N[C@H](C(=O)N[C@@H](CCC(=O)O)C(=O)N[C@@H](CCCCN)C(=O)N[C@H](C(=O)N[C@@H](CCCCN)C(=O)N[C@@H](CCC(=O)O)C(=O)N[C@@H](Cc1ccccc1)C(=O)N[C@@H](Cc1ccccc1)C(N)=O)C(C)C)C(C)C [Compound 121, [Aib8,Glu23,Val25,Glu34,Lys35,Val36,Lys37]-GLP-1-(7-37)-peptidyl-Glu-Phe-Phe amide] (H-H[Aib]EGTFTSDVSSYLEGEAVKEFIAWLVEKVKEFF-NH2) |  | 0.372 nM | 109%
4 | CC[C@H](C)[C@H](NC(=O)[C@H](Cc1ccccc1)NC(=O)[C@H](CC(C)C)NC(=O)[C@H](CCCCN)NC(=O)[C@@H](NC(=O)[C@H](C)NC(=O)[C@H](CCC(=O)O)NC(=O)CNC(=O)[C@H](CCC(=O)O)NC(=O)[C@H](CC(C)C)NC(=O)[C@H](Cc1ccc(O)cc1)NC(=O)[C@H](CO)NC(=O)[C@H](CO)NC(=O)[C@@H](NC(=O)[C@H](CC(=O)O)NC(=O)[C@H](CO)NC(=O)[C@@H](NC(=O)[C@H](Cc1ccccc1)NC(=O)[C@@H](NC(=O)CNC(=O)[C@H](CCC(=O)O)NC(=O)C(C)(C)NC(=O)[C@@H](N)Cc1c[nH]cn1)[C@@H](C)O)[C@@H](C)O)C(C)C)C(C)C)C(=O)N[C@@H](C)C(=O)N[C@@H](Cc1c[nH]c2ccccc12)C(=O)N[C@@H](CC(C)C)C(=O)N[C@H](C(=O)N[C@@H](CCC(=O)O)C(=O)N[C@@H](CCCCN)C(=O)NC(C)(C)C(=O)N[C@@H](CCCCN)C(=O)N[C@@H](CCC(=O)O)C(=O)N[C@@H](Cc1ccccc1)C(=O)N[C@@H](CC(C)C)C(N)=O)C(C)C [Compound 28, [Aib8,Glu23,Val25,Leu27,Glu34,Lys35,Aib36,Lys37]-GLP-1-(7-37)-peptidyl-Glu-Phe-Leu amide] (H-H[Aib]EGTFTSDVSSYLEGEAVKLFIAWLVEK[Aib]KEFL-NH2) |  | 0.104 nM | 78%

The next compounds have a lower EC50 (human GLP-1 receptor; [3]) than those just listed; values first:

Row | EC50 (human GLP-1 receptor; [2]) | EC50 (human GLP-1 receptor; [3]) | Compound | 4 h Cholesterol Efflux Emax [1]
5 | 0.029 nM | 0.012 nM | CC[C@H](C)[C@H](NC(=O)[C@H](Cc1ccccc1)NC(=O)[C@H](CCC(=O)O)NC(=O)[C@H](CCCCN)NC(=O)[C@@H](NC(=O)[C@H](C)NC(=O)[C@H](CCC(=O)O)NC(=O)[C@H](CCC(=O)O)NC(=O)[C@H](CCC(=O)O)NC(=O)[C@H](CC(C)C)NC(=O)[C@H](Cc1ccc(O)cc1)NC(=O)[C@H](CO)NC(=O)[C@H](CO)NC(=O)[C@@H](NC(=O)[C@H](CC(=O)O)NC(=O)[C@H](CO)NC(=O)[C@@H](NC(=O)[C@H](Cc1ccccc1)NC(=O)[C@@H](NC(=O)CNC(=O)[C@H](CCC(=O)O)NC(=O)C(C)(C)NC(=O)[C@@H](N)Cc1c[nH]cn1)[C@@H](C)O)[C@@H](C)O)C(C)C)C(C)C)C(=O)N[C@@H](C)C(=O)N[C@@H](Cc1c[nH]c2ccccc12)C(=O)N[C@@H](CC(C)C)C(=O)N[C@H](C(=O)N[C@@H](CCC(=O)O)C(=O)N[C@@H](CCCCN)C(=O)N[C@H](C(=O)N[C@@H](CCCCN)C(=O)N[C@@H](CCC(=O)O)C(=O)N[C@@H](Cc1ccccc1)C(N)=O)C(C)C)C(C)C [Compound 134, [Aib8,Glu22,Glu23,Val25,Glu34,Lys35,Val36,Lys37]-GLP-1-(7-37)-peptidyl-Glu-Phe amide] (H-H[Aib]EGTFTSDVSSYLEEEAVKEFIAWLVEKVKEF-NH2) | 134%
6 | 0.043 nM | 0.014 nM | CC[C@H](C)[C@H](NC(=O)[C@H](Cc1ccccc1)NC(=O)[C@H](CCC(=O)O)NC(=O)[C@H](CCCCN)NC(=O)[C@@H](NC(=O)[C@H](C)NC(=O)[C@H](CCC(=O)O)NC(=O)CNC(=O)[C@H](CCC(=O)O)NC(=O)[C@H](CC(C)C)NC(=O)[C@H](Cc1ccc(O)cc1)NC(=O)[C@H](CO)NC(=O)[C@H](CO)NC(=O)[C@@H](NC(=O)[C@H](CC(=O)O)NC(=O)[C@H](CO)NC(=O)[C@@H](NC(=O)[C@H](Cc1ccccc1)NC(=O)[C@@H](NC(=O)CNC(=O)[C@H](CCC(=O)O)NC(=O)C(C)(C)NC(=O)[C@@H](N)Cc1c[nH]cn1)[C@@H](C)O)[C@@H](C)O)C(C)C)C(C)C)C(=O)N[C@@H](C)C(=O)N[C@@H](Cc1c[nH]c2ccccc12)C(=O)N[C@@H](CC(C)C)C(=O)N[C@H](C(=O)N[C@@H](CCC(=O)O)C(=O)N[C@@H](CCCCN)C(=O)N[C@H](C(=O)N[C@@H](CCCCN)C(=O)N[C@@H](CCC(=O)O)C(=O)N[C@@H](CCCCN)C(N)=O)C(C)C)C(C)C [Compound 110, [Aib8,Glu23,Val25,Glu34,Lys35,Val36,Lys37]-GLP-1-(7-37)-peptidyl-Glu-Lvs amide] (H-H[Aib]EGTFTSDVSSYLEGEAVKEFIAWLVEKVKEK-NH2) | 106%
7 | 0.025 nM | 0.016 nM | CC[C@H](C)[C@H](NC(=O)[C@H](Cc1ccccc1)NC(=O)[C@H](CCC(=O)O)NC(=O)[C@H](CCCCN)NC(=O)[C@@H](NC(=O)[C@H](C)NC(=O)[C@H](CCC(=O)O)NC(=O)CNC(=O)[C@H](CCC(=O)O)NC(=O)[C@H](CC(C)C)NC(=O)[C@H](Cc1ccc(O)cc1)NC(=O)[C@H](CO)NC(=O)[C@H](CO)NC(=O)[C@@H](NC(=O)[C@H](CC(=O)O)NC(=O)[C@H](CO)NC(=O)[C@@H](NC(=O)[C@H](Cc1ccccc1)NC(=O)[C@@H](NC(=O)CNC(=O)[C@H](CCC(=O)O)NC(=O)C(C)(C)NC(=O)[C@@H](N)Cc1c[nH]cn1)[C@@H](C)O)[C@@H](C)O)C(C)C)C(C)C)C(=O)N[C@@H](C)C(=O)N[C@@H](Cc1c[nH]c2ccccc12)C(=O)N[C@@H](CC(C)C)C(=O)N[C@H](C(=O)N[C@@H](CCC(=O)O)C(=O)N[C@@H](CCCCN)C(=O)N[C@H](C(=O)N[C@@H](CCCCN)C(=O)N[C@@H](CCC(=O)O)C(=O)N[C@@H](CCC(=O)O)C(=O)N[C@@H](CC(C)C)C(N)=O)C(C)C)C(C)C [Compound 116, [Aib8,Glu23,Val25,Glu34,Lys35,Val36,Lys37]-GLP-1-(7-37)-peptidyl-Glu-Glu-Leu amide] (H-H[Aib]EGTFTSDVSSYLEGEAVKEFIAWLVEKVKEEL-NH2) | 131%
8 | 0.041 nM | 0.013 nM | H-HAEGTFTSDVSSYLEGQAAKEFIAWLVEKVGEFLEK-OH [Compound 128] | 112%
